Measurements reported in publication PMC5218480 (PLoS ONE, 2017).

Test system: MV-4-11 cells
Experiment: Gene expression microarray analysis (Affymetrix PrimeView) and GSEA
Assay type: cell-based, human
Parameters: RFU PODN (11730768_x_at) / Fold change /veh PODN (11730768_x_at) / RFU LINC00158 (11744669_a_at) / Fold change /veh LINC00158 (11744669_a_at) / RFU DUSP10 (11751237_a_at) / Fold change /veh DUSP10 (11751237_a_at) / RFU ID3 (11757404_x_at) / Fold change /veh ID3 (11757404_x_at) / RFU PLEKHG5 (11737974_s_at) / Fold change /veh PLEKHG5 (11737974_s_at) / RFU LRRC4B (11730491_at) / Fold change /veh LRRC4B (11730491_at) / RFU GIMAP4 (11747438_a_at) / Fold change /veh GIMAP4 (11747438_a_at) / RFU KRT8 (11758183_x_at) / Fold change /veh KRT8 (11758183_x_at) / RFU CNN1 (11734310_a_at) / Fold change /veh CNN1 (11734310_a_at) / RFU VPS37D (11726825_at) / Fold change /veh VPS37D (11726825_at) / RFU C10orf10 (11716522_x_at) / Fold change /veh C10orf10 (11716522_x_at) / RFU KIR2DL2 /// KIR2DL4 /// KIR2DL5A /// KIR2DL5B /// KIR2DS1 /// KIR2DS2 /// KIR2DS3 /// KIR2DS4 /// KIR3DL3 /// KIR3DL3 /// KIR3DS1 (11738374_at) / Fold change /veh KIR2DL2 /// KIR2DL4 /// KIR2DL5A /// KIR2DL5B /// KIR2DS1 /// KIR2DS2 /// KIR2DS3 /// KIR2DS4 /// KIR3DL3 /// KIR3DL3 /// KIR3DS1 (11738374_at) / RFU C1QL1 (11718748_at) / Fold change /veh C1QL1 (11718748_at) / RFU TMPRSS4 (11747572_a_at) / Fold change /veh TMPRSS4 (11747572_a_at) / RFU HAMP (11756126_x_at) / Fold change /veh HAMP (11756126_x_at) / RFU RNFT2 (11725882_a_at) / Fold change /veh RNFT2 (11725882_a_at) / RFU NR4A2 (11747474_a_at) / Fold change /veh NR4A2 (11747474_a_at) / RFU ABCC12 (11746883_a_at) / Fold change /veh ABCC12 (11746883_a_at) / RFU TMEM136 (11760407_x_at) / Fold change /veh TMEM136 (11760407_x_at) / RFU CLDN22 /// WWC2 (11732394_at) / Fold change /veh CLDN22 /// WWC2 (11732394_at) / RFU HLA-DPB1 (11760878_x_at) / Fold change /veh HLA-DPB1 (11760878_x_at) / RFU SPINT1 (11716480_a_at) / Fold change /veh SPINT1 (11716480_a_at) / RFU GAP43 (11754022_s_at) / Fold change /veh GAP43 (11754022_s_at) / RFU A4GNT (11735810_at) / Fold change /veh A4GNT (11735810_at) / RFU PRB3 (11715151_x_at) / Fold change /veh PRB3 (11715151_x_at) / RFU TUBB4B (11761932_at) / Fold change /veh TUBB4B (11761932_at) / RFU CAPN14 (11732068_a_at) / Fold change /veh CAPN14 (11732068_a_at) / RFU TMCC2 (11721928_a_at) / Fold change /veh TMCC2 (11721928_a_at) / RFU IRGQ (11745062_a_at) / Fold change /veh IRGQ (11745062_a_at) / RFU FAM174B (11720279_a_at) / Fold change /veh FAM174B (11720279_a_at) / RFU TMPRSS4 (11748680_a_at) / Fold change /veh TMPRSS4 (11748680_a_at) / RFU FAM212B (11763350_a_at) / Fold change /veh FAM212B (11763350_a_at) / RFU PLEKHG5 (11743358_a_at) / Fold change /veh PLEKHG5 (11743358_a_at) / RFU ZSCAN30 (11745921_a_at) / Fold change /veh ZSCAN30 (11745921_a_at) / RFU CMKLR1 (11741424_a_at) / Fold change /veh CMKLR1 (11741424_a_at) / RFU LOC101060620 /// MAPK8IP1 (11723275_at) / Fold change /veh LOC101060620 /// MAPK8IP1 (11723275_at) / RFU SPTSSB (11747773_x_at) / Fold change /veh SPTSSB (11747773_x_at) / RFU PRSS12 (11739890_at) / Fold change /veh PRSS12 (11739890_at) / RFU BIN1 (11741810_x_at) / Fold change /veh BIN1 (11741810_x_at) / RFU WNT11 (11732464_a_at) / Fold change /veh WNT11 (11732464_a_at) / RFU C10orf10 (11716521_a_at) / Fold change /veh C10orf10 (11716521_a_at) / RFU C5orf56 (11738089_at) / Fold change /veh C5orf56 (11738089_at) / RFU CYB561 (11721691_x_at) / Fold change /veh CYB561 (11721691_x_at) / RFU ANKRD19P (11752326_a_at) / Fold change /veh ANKRD19P (11752326_a_at) / RFU OR2T12 /// OR2T33 /// OR2T8 (11738714_s_at) / Fold change /veh OR2T12 /// OR2T33 /// OR2T8 (11738714_s_at) / RFU VCAN (11748164_a_at) / Fold change /veh VCAN (11748164_a_at) / RFU JSRP1 (11732532_at) / Fold change /veh JSRP1 (11732532_at) / RFU KRTAP10-11 (11738290_x_at) / Fold change /veh KRTAP10-11 (11738290_x_at) / RFU MYO3A (11730013_a_at) / Fold change /veh MYO3A (11730013_a_at) / RFU EBF3 (11725865_a_at) / Fold change /veh EBF3 (11725865_a_at) / RFU CAMK2N1 (11719241_x_at) / Fold change /veh CAMK2N1 (11719241_x_at) / RFU C5orf56 (11738088_a_at) / Fold change /veh C5orf56 (11738088_a_at) / RFU OLFML3 (11715873_a_at) / Fold change /veh OLFML3 (11715873_a_at) / RFU LOC100653217 /// NTM (11731650_a_at) / Fold change /veh LOC100653217 /// NTM (11731650_a_at) / RFU MAPK11 (11762145_a_at) / Fold change /veh MAPK11 (11762145_a_at) / RFU FIZ1 (11724087_x_at) / Fold change /veh FIZ1 (11724087_x_at) / RFU OASL (11726364_x_at) / Fold change /veh OASL (11726364_x_at) / RFU SOX15 (11748057_x_at) / Fold change /veh SOX15 (11748057_x_at) / RFU CD79A (11719716_a_at) / Fold change /veh CD79A (11719716_a_at) / RFU HIST1H1D (11736915_at) / Fold change /veh HIST1H1D (11736915_at) / RFU CASKIN2 (11723855_a_at) / Fold change /veh CASKIN2 (11723855_a_at) / RFU LOC730098 (11760151_x_at) / Fold change /veh LOC730098 (11760151_x_at) / RFU OR4N2 (11742367_at) / Fold change /veh OR4N2 (11742367_at) / RFU PRRT2 (11749266_a_at) / Fold change /veh PRRT2 (11749266_a_at) / RFU SNX32 (11753110_a_at) / Fold change /veh SNX32 (11753110_a_at) / RFU CDHR5 (11726645_a_at) / Fold change /veh CDHR5 (11726645_a_at) / RFU RCAN1 (11760418_a_at) / Fold change /veh RCAN1 (11760418_a_at) / RFU FAM167A (11723789_a_at) / Fold change /veh FAM167A (11723789_a_at) / RFU FAM26E (11764081_at) / Fold change /veh FAM26E (11764081_at) / RFU ISYNA1 (11749810_s_at) / Fold change /veh ISYNA1 (11749810_s_at) / RFU ACY1 (11761880_at) / Fold change /veh ACY1 (11761880_at) / RFU 11764098_at / Fold change /veh 11764098_at / RFU SAMD14 (11745864_x_at) / Fold change /veh SAMD14 (11745864_x_at) / RFU NPB (11741838_a_at) / Fold change /veh NPB (11741838_a_at) / RFU TMPRSS6 (11731388_a_at) / Fold change /veh TMPRSS6 (11731388_a_at) / RFU KRTAP10-2 (11738614_at) / Fold change /veh KRTAP10-2 (11738614_at) / RFU ARHGAP8 /// PRR5-ARHGAP8 (11727945_x_at) / Fold change /veh ARHGAP8 /// PRR5-ARHGAP8 (11727945_x_at) / RFU KRTAP5-7 /// NADSYN1 (11734609_at) / Fold change /veh KRTAP5-7 /// NADSYN1 (11734609_at) / RFU RASL12 (11751679_a_at) / Fold change /veh RASL12 (11751679_a_at) / RFU CDKN2B (11736163_a_at) / Fold change /veh CDKN2B (11736163_a_at) / RFU PRF1 (11729649_at) / Fold change /veh PRF1 (11729649_at) / RFU, ZNF638 /// ZNF638-IT1 / Fold change vs veh, ZNF638 /// ZNF638-IT1 / RFU, PANK3 / Fold change vs veh, PANK3 / RFU, SH3YL1 / Fold change vs veh, SH3YL1 / RFU, ZEB2 / Fold change vs veh, ZEB2 / RFU, NRIP1 / Fold change vs veh, NRIP1 / RFU, PTTG1IP / Fold change vs veh, PTTG1IP / RFU, CAPN2 / Fold change vs veh, CAPN2 / RFU, MED14 / Fold change vs veh, MED14 / RFU, SNORA58 / Fold change vs veh, SNORA58 / RFU, C1orf63 / Fold change vs veh, C1orf63 / RFU, LRRFIP1 / Fold change vs veh, LRRFIP1 / RFU, NDUFAF7 / Fold change vs veh, NDUFAF7 / RFU, SLC12A2 / Fold change vs veh, SLC12A2 / RFU, IBTK / Fold change vs veh, IBTK / RFU, ESF1 / Fold change vs veh, ESF1 / Fold change vs veh, TMEM50B / RFU, TAOK1 / Fold change vs veh, TAOK1 / RFU, ACBD3 / Fold change vs veh, ACBD3 / RFU, TMA16 / Fold change vs veh, TMA16 / RFU, RWDD3 / Fold change vs veh, RWDD3 / RFU, BCAT1 / Fold change vs veh, BCAT1 / RFU, EDEM3 / Fold change vs veh, EDEM3 / RFU, TMEM33 / Fold change vs veh, TMEM33 / RFU, WDR75 / Fold change vs veh, WDR75 / RFU, AHCTF1 / Fold change vs veh, AHCTF1 / RFU, TFRC / Fold change vs veh, TFRC / RFU, ZDHHC17 / Fold change vs veh, ZDHHC17 / RFU, NOM1 / Fold change vs veh, NOM1 / RFU, ARL8B / Fold change vs veh, ARL8B / RFU, ZBTB11 / Fold change vs veh, ZBTB11 / RFU, TAMM41 / Fold change vs veh, TAMM41 / RFU, KIAA1704 /// LOC100996395 / Fold change vs veh, KIAA1704 /// LOC100996395 / RFU, ING1 / Fold change vs veh, ING1 / RFU, TRMT61B / Fold change vs veh, TRMT61B / RFU, FUBP3 / Fold change vs veh, FUBP3 / RFU, TP53 / Fold change vs veh, TP53 / RFU, TNKS2 / Fold change vs veh, TNKS2 / RFU, ZFP14 / Fold change vs veh, ZFP14 / RFU, ACTR2 / Fold change vs veh, ACTR2 / RFU, PPP3R1 / Fold change vs veh, PPP3R1 / RFU, PIK3R1 / Fold change vs veh, PIK3R1 / RFU, HNRNPA1 / Fold change vs veh, HNRNPA1 / RFU, RNF170 / Fold change vs veh, RNF170 / RFU, ZNF28 / Fold change vs veh, ZNF28 / RFU, RNGTT / Fold change vs veh, RNGTT / RFU, OGT / Fold change vs veh, OGT / RFU, BRD1 / Fold change vs veh, BRD1 / RFU, MARS / Fold change vs veh, MARS / RFU, ZNF655 / Fold change vs veh, ZNF655 / RFU, FAHD1 / Fold change vs veh, FAHD1 / RFU, BDP1 / Fold change vs veh, BDP1 / RFU, LRRCC1 / Fold change vs veh, LRRCC1 / RFU, ARID1A / Fold change vs veh, ARID1A / RFU, ZNF146 / Fold change vs veh, ZNF146 / RFU, ZNF330 / Fold change vs veh, ZNF330 / RFU, GPN3 / Fold change vs veh, GPN3 / RFU, C9orf123 / Fold change vs veh, C9orf123 / RFU, N4BP2L2 / Fold change vs veh, N4BP2L2 / RFU, ARFIP1 / Fold change vs veh, ARFIP1 / RFU, FAM179B / Fold change vs veh, FAM179B / RFU, BCL10 / Fold change vs veh, BCL10 / RFU, UHRF1BP1L / Fold change vs veh, UHRF1BP1L / RFU, BET1 / Fold change vs veh, BET1 / RFU, CNOT2 / Fold change vs veh, CNOT2 / RFU, ZNF268 / Fold change vs veh, ZNF268 / Fold change vs veh, ZNF507 / RFU, DGCR2 / Fold change vs veh, DGCR2 / RFU, WDSUB1 / Fold change vs veh, WDSUB1 / Fold change vs veh, HSP90B1 /// MIR3652 / RFU, ADSS / Fold change vs veh, ADSS / RFU, GK / Fold change vs veh, GK / RFU, ZNF148 / Fold change vs veh, ZNF148 / RFU, TAF9 / Fold change vs veh, TAF9 / RFU, SLC1A5 / Fold change vs veh, SLC1A5 / RFU, SLMO2 / Fold change vs veh, SLMO2 / RFU, ABCC4 / Fold change vs veh, ABCC4 / RFU, LOC101060439 /// RAP1B / Fold change vs veh, LOC101060439 /// RAP1B / RFU, RFX7 / Fold change vs veh, RFX7 / RFU, GTPBP10 / Fold change vs veh, GTPBP10 / RFU, CNEP1R1 / Fold change vs veh, CNEP1R1 / RFU, BIVM-ERCC5 /// ERCC5 / Fold change vs veh, BIVM-ERCC5 /// ERCC5 / RFU, ILF3 / Fold change vs veh, ILF3 / RFU 11762660_at / Fold change /veh 11762660_at / RFU VCAN (11757783_s_at) / Fold change /veh VCAN (11757783_s_at) / RFU DDX43 (11728927_at) / Fold change /veh DDX43 (11728927_at) / RFU KRT8 (11758188_x_at) / Fold change /veh KRT8 (11758188_x_at) / RFU NKD1 (11759106_at) / Fold change /veh NKD1 (11759106_at) / RFU SRD5A1 (11742802_a_at) / Fold change /veh SRD5A1 (11742802_a_at) / RFU TPSAB1 /// TPSB2 (11721975_s_at) / Fold change /veh TPSAB1 /// TPSB2 (11721975_s_at) / RFU GSTM3 (11746129_a_at) / Fold change /veh GSTM3 (11746129_a_at) / RFU IL23R (11737362_x_at) / Fold change /veh IL23R (11737362_x_at) / RFU TMEM51 (11727254_a_at) / Fold change /veh TMEM51 (11727254_a_at) / RFU PIWIL2 (11732686_x_at) / Fold change /veh PIWIL2 (11732686_x_at) / RFU ORM1 (11744905_x_at) / Fold change /veh ORM1 (11744905_x_at) / RFU CCDC152 (11743942_at) / Fold change /veh CCDC152 (11743942_at) / RFU ECM1 (11717891_a_at) / Fold change /veh ECM1 (11717891_a_at) / RFU IL23R (11748794_a_at) / Fold change /veh IL23R (11748794_a_at) / RFU TNFAIP8L3 (11732012_x_at) / Fold change /veh TNFAIP8L3 (11732012_x_at) / RFU MBOAT4 (11741988_at) / Fold change /veh MBOAT4 (11741988_at) / RFU 11764193_at / Fold change /veh 11764193_at / RFU TMEM53 (11763286_at) / Fold change /veh TMEM53 (11763286_at) / RFU MAGEB2 (11727129_at) / Fold change /veh MAGEB2 (11727129_at) / RFU TMEM200A (11744735_a_at) / Fold change /veh TMEM200A (11744735_a_at) / RFU CCDC152 (11751479_a_at) / Fold change /veh CCDC152 (11751479_a_at) / RFU FAM211A (11726209_a_at) / Fold change /veh FAM211A (11726209_a_at) / RFU RGS16 (11746705_a_at) / Fold change /veh RGS16 (11746705_a_at) / RFU VCAN (11755009_s_at) / Fold change /veh VCAN (11755009_s_at) / RFU RHOB (11743442_s_at) / Fold change /veh RHOB (11743442_s_at) / RFU RGS16 (11720943_a_at) / Fold change /veh RGS16 (11720943_a_at) / RFU RGS16 (11720944_at) / Fold change /veh RGS16 (11720944_at) / RFU, VPS4B / Fold change vs veh, VPS4B / RFU, CREB1 / Fold change vs veh, CREB1 / RFU, DNAJC13 / Fold change vs veh, DNAJC13 / RFU, GNAQ / Fold change vs veh, GNAQ / RFU, CDK5R1 / Fold change vs veh, CDK5R1 / RFU, ZRANB3 / Fold change vs veh, ZRANB3 / RFU, CUL4A / Fold change vs veh, CUL4A / RFU, CCNY / Fold change vs veh, CCNY / RFU, UFL1 / Fold change vs veh, UFL1 / RFU, COG3 / Fold change vs veh, COG3 / RFU, DIAPH2 / Fold change vs veh, DIAPH2 / RFU, SKA2 / Fold change vs veh, SKA2 / RFU, AFF3 / Fold change vs veh, AFF3 / RFU, LMF1 / Fold change vs veh, LMF1 / RFU, IPO11 / Fold change vs veh, IPO11 / RFU, DFFB / Fold change vs veh, DFFB / RFU, FOXP1 / Fold change vs veh, FOXP1 / RFU, CARD8 / Fold change vs veh, CARD8 / RFU, STRN3 / Fold change vs veh, STRN3 / RFU, ADK / Fold change vs veh, ADK / RFU, RASSF2 / Fold change vs veh, RASSF2 / RFU, WIPF1 / Fold change vs veh, WIPF1 / RFU, LARP1B / Fold change vs veh, LARP1B / RFU, RASA1 / Fold change vs veh, RASA1 / RFU, RB1 / Fold change vs veh, RB1 / RFU, PPFIA1 / Fold change vs veh, PPFIA1 / RFU, MAT2A / Fold change vs veh, MAT2A / RFU, CCT5 / Fold change vs veh, CCT5 / RFU, WDR92 / Fold change vs veh, WDR92 / RFU, CUX1 / Fold change vs veh, CUX1 / RFU, TTC7A / Fold change vs veh, TTC7A / RFU, TMEM135 / Fold change vs veh, TMEM135 / RFU, DEPTOR / Fold change vs veh, DEPTOR / RFU, CPM / Fold change vs veh, CPM / RFU, DNAJB6 / Fold change vs veh, DNAJB6 / RFU, CACNA2D3 / Fold change vs veh, CACNA2D3 / RFU, DTX4 / Fold change vs veh, DTX4 / RFU, TFCP2 / Fold change vs veh, TFCP2 / RFU, GMCL1 /// GMCL1P1 / Fold change vs veh, GMCL1 /// GMCL1P1 / RFU, AEBP2 / Fold change vs veh, AEBP2 / RFU, SNHG1 /// SNORD22 /// SNORD25 /// SNORD26 /// SNORD27 /// SNORD28 /// SNORD29 /// SNORD31 / Fold change vs veh, SNHG1 /// SNORD22 /// SNORD25 /// SNORD26 /// SNORD27 /// SNORD28 /// SNORD29 /// SNORD31 / Fold change (Aza/veh), C12orf56 (ProbeSet 11735607_a_at) / Fold change (ACY-1035/veh), C12orf56 (ProbeSet 11735607_a_at) / Fold change (Aza/veh), FGFR1OP (ProbeSet 11751329_s_at) / Fold change (ACY-1035/veh), FGFR1OP (ProbeSet 11751329_s_at) / Fold change (Aza/veh), VPS36 (ProbeSet 11739960_a_at) / Fold change (ACY-1035/veh), VPS36 (ProbeSet 11739960_a_at) / RFU SYPL1 (11715823_x_at) / Fold change /veh SYPL1 (11715823_x_at) / RFU IGFBP7 (11715501_s_at) / Fold change /veh IGFBP7 (11715501_s_at) / RFU REEP3 (11722064_at) / Fold change /veh REEP3 (11722064_at) / RFU IGLL1 (11728026_x_at) / Fold change /veh IGLL1 (11728026_x_at): dose or concentration left out as unconfirmed
Settings: ProbeSet 11758440_s_at; LIST B

SMILES: Nc1ncn([C@@H]2O[C@H](CO)[C@@H](O)[C@H]2O)c(=O)n1 [azacitidine]
- Fold change vs veh, RFX7: 0.86
